Values of other authors as cited in patent US11185540B2, “Extended release compositions of opioid antagonists and phosphodiesterase 5 inhibitors” (Pardon My Scotch, LLC, priority 2017, dated 2021).

Columns and labels:
PDE9 = PDE9 (Homo sapiens, UniProt O76083)
[1] = in vivo
PDE5 = PDE5 (Homo sapiens, UniProt O76074)

PDE9, sequence (O76083 whole entry): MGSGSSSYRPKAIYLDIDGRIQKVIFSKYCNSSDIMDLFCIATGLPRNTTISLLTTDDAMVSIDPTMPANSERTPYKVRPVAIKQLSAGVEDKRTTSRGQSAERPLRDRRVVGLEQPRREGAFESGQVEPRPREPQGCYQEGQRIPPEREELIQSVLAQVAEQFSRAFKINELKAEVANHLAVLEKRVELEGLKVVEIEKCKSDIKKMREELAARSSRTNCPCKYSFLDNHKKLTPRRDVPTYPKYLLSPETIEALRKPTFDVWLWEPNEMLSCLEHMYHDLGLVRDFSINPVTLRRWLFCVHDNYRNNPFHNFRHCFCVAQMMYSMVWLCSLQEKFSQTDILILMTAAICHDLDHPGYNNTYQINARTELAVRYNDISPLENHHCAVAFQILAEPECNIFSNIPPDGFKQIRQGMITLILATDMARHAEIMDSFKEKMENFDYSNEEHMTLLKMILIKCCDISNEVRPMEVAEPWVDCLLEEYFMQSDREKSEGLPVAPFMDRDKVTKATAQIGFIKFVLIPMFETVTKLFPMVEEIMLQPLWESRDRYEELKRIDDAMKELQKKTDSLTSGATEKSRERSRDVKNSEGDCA

| SMILES | Inhibition of PDE6 (PDE6) | Inhibition of PDE9 (PDE9) | Plasma half-life [1] [h] | Inhibition of PDE5 (PDE5) |
| --- | --- | --- | --- | --- |
| CCCc1nn(C)c2c(=O)[nH]c(-c3cc(S(=O)(=O)N4CCN(C)CC4)ccc3OCC)nc12 [sildenafil] | inhibit | inhibit | 5 to 7 |  |
| CN1CC(=O)N2[C@H](c3ccc4c(c3)OCO4)c3[nH]c4ccccc4c3C[C@@H]2C1=O [tadalafil, pyrazino[1′,2′:1,6]pyrido[3,4-b]indole-1,4-dione, 6-(1,3-benzodioxol-5-yl)-2,3,6,7,12,12a-hexahydro-2-methyl-, (6R,12aR)-] |  |  |  | inhibit |
| CCCc1nc(C)c2c(=O)[nH]c(-c3cc(S(=O)(=O)N4CCN(CC)CC4)ccc3OCC)nn12 [vardenafil] |  |  | 5 to 7 |  |
